Among the data in the NIST ThermoML archive (doi:10.1016/j.fluid.2005.05.018) are refractive index and mass density values, retold here.

Series [1] can be described thus: refractive index (Na D-line) (dimensionless). Particulars: 293.15 K; 101.33 kPa; Liquid; Standard Abbe refractometry.
The conditions of series [2]: 101.33 kPa, Liquid.

The structures appear in SMILES notation. ± gives the expanded uncertainty stated by the source.

One may read the refractive index as a measure of how strongly the sample bends light. The mass density is the mass of a sample divided by its volume. In the case of `CC(=O)OC(C)C` [1-methylethyl ethanoate], the refractive index in series [1] amounted to 1.3751 ± 0.0007. In addition, in series [2] (298.15 K), the mass density amounted to 866.4 ± 0.5 kg/m3.
With `CCOC(=O)OCC` [diethyl carbonate], the refractive index in series [1] was found to be 1.383 ± 0.0007. Further, the mass density in series [2] (298.15 K) worked out at 969.2 ± 0.3 kg/m3.
Take `CCO` [ethanol]: the refractive index in series [1] turned out to be 1.3592 ± 0.0007. Moreover, in series [2] (293.15 K), the mass density is recorded as 789.4 ± 0.6 kg/m3.
The corresponding values for `CCCC(=O)OCC` [ethyl butanoate] are 1.3899 ± 0.0007 and 879 ± 0.5 kg/m3.
